Experimental data taken from patent publication US20090018118A1, “HETEROCYCLIC COMPOUNDS” (priority 2005, published 2009).
Counter-ions that a name gives are not always drawn. Like-named read-outs stand apart in the source and are kept apart here.

What was measured:
[1] = test system: cholesterol biosynthesis in HepG2 cells; experiment: Metabolic labeling of HepG2 cells with [3H]acetate; radio-HPLC sterol profile (inhibition of cholesterol biosynthesis); assay type: cell-based, human; conditions: HepG2; for activity at 10 µM: Homo sapiens, 24 h, Table I, sterol level normalized to normal medium (1.00), mean of 4 experiments
Experimental: In accordance with the aims of the invention, the effect of the novel compounds on inhibition of cholesterol biosynthesis is assessed. An ex vivo method of metabolic labeling of immortal human hepatocytes is employed. The radioactively labeled early precursor of cholesterol [3H]acetate is added to cells with or without addition of an active new compound.
An ex vivo method of metabolic labeling of immortal human hepatocytes is employed. The radioactively labeled early precursor of cholesterol [3H]acetate is added to cells with or without addition of an active compound.
Cell culture incubation with potential inhibitors of cholesterol biosynthesis and statins Human hepatoma cell line (HepG2-ATCC No. HB-8065) is split in the recommended ratio (1:2-3) into 75 cm^2 cell flasks using two flasks per experimental condition. Cells are incubated at 37° C. with 5% CO2 in Dulbeco's modified Eagle medium (DMEM high (Sigma)) containing 5% calf serum (Sigma) and 1% L-glutamine (Sigma). After 24-hours-culturing in the growth medium, the medium is replaced with the one supplemented with 10 μM concentration of a LK compound, potential inhibitor of cholesterol biosynthesis. 10 μM solution of atorvastatin, inhibitor of HMG-CoA reductase, serves as a positive control.
After 24 hours the growth medium is changed and [^3H]acetate (NEN™ Life Science Products) added in a concentration of 40 μCi per ml of the medium (400 μCi per flask). After 4 hours cells are harvested using 2 ml of trypsin (Sigma) and the cell pellet is resuspended in 1 ml of distilled water. Cells are homogenized using the freeze and thaw method. From cell homogenate sterols are extracted and protein concentration determined using the Bio-Rad reagent.
Homogenates are transferred into 4 ml glass vial and sterols are extracted in 3 ml of extraction solution (75% n-heptane: 25% isopropanol (vol./vol.)) with ergosterol as an internal standard. For better extraction 100 μl of 0.3M NaH2PO4 (pH=1.0) is added. Closed vials are vigorously shaken (1800 rpm) for 2 hours. After extraction procedure vials are centrifuged (2000 g, 10 min) and the organic phase is transferred to fresh conical glass tubes. Extraction procedure is repeated using 1 ml of extraction solution for 15 min. Organic phases are pooled. Primary extracts are dried in vacuum centrifuge, redissolved in 3 ml of n-heptane, and incubated for 10 min at room temperature with mild shaking. After centrifugation (10 min, 2000 g) extracts are transferred into fresh glass tubes and stored in dark and cold.
The organic phase is dried, reconstituted in mobile phase for reversed phase HPLC separation and loaded onto a-HPLC column, Prism-RPN, 5 μm, 250×4,6 mm running in 100% acetonitrile at 1.00 ml/min at 40° C. temperature. Scintillation liquid is added after UV detection at 30 ml/h, at room temperature, to evaluate tritium labeled sterols on a radio detector.
Sterols are determined by comparing the eluted peaks with runs of commercial standards of lanosterol, ergosterol, desmosterol, zymosterol, 7-dehydrocholesterol, lathosterol and cholesterol or laboratory standards (FF-MAS-4,4-Dimethylcholesta-8(9),14,24-triene-3β-ol- and T-MAS-4,4-Dimethylcholesta8(9),24,diene-3,6-ol, Laboratory of Reproductive Biology, The Juliane Marie Center for Children, Women and Reproduction, University Hospital of Copenhagen, DK-2100 Copenhagen, Denmark). Results were normalized on ergosterol quantity and protein concentration. Results are presented as a mean from 4 separated experiments.
The influence of a 10 μM solution of novel LK-substances on cholesterol biosynthesis in the assay on HepG2 cells is presented in Table I. Compounds are arranged according to the building blocks, three of them are 2-pyridineethanols, 2-pyridineethylpiperazines and pyridinemethylpiperazines.
Normal medium pertains to cell cultures without a compound of the invention. Its sterol levels were used for normalization. 10 μM solution of atorvastatin serves as a positive control.

[2] = Table II (arranged by sterol profile), 10 μM compound, normalized to normal medium (1.00)

OC(CN1CCN(CCc2ccccc2)CC1)c1cccnc1 (stereo not drawn) (as salt: hydrobromid) [LK-980, 2-(4-Phenethylpiperazine-1-yl)-1-(pyridine3-yl)-1-ethanol trihydrobromide] showed a melting point of 178 to 181 °C.
With c1ccc(CCN2CCN(CCc3cccnc3)CC2)cc1 (as salt: hydrobromid) [LK-9100, 1-Phenethyl-4-(2-(pyridine-3-yl)ethyl)piperazine trihydrobromide] the melting point was 219 to 222 °C.
For COc1ccc(CN2CCN(CCc3ccccc3)CC2)cn1 (as salt: hydrobromid) [LK-9106, 1-((6-Methoxypyridin-3-yl)methyl)-4-phenethylpiperazine trihydrobromide], the melting point was 215 to 217 °C.
With FC(F)(F)c1ccc(CN2CCN(CCc3ccccc3)CC2)cn1 (as salt: hydrobromid) [LK-9107, 1-Phenethyl-4-((6(trifluoromethyl)pyridine-3-yl)methyl)piperazine trihydrobromide] the melting point was 225 to 228 °C.
FC(F)(F)c1cnc(N2CCCN(CCc3ccccc3)CC2)c(Cl)c1 (as salt: hydrobromid) [LK-9115, 1-(3-Chloro-5-(trifluoromethyl)pyridine-2-yl)-4-phenethyl-1,4-diazepane trihydrobromide] gave a melting point of 175 to 177 °C.
Fc1ccc(CCN2CCN(CCc3ccncc3)CC2)cc1F (as salt: hydrobromid) [LK-9131, 1-(3,4-di-Fluorophenethyl)-4-(2-(pyridin-4-yl)ethyl)piperazine trihydrobromide] gave a melting point of 256 to 259 °C.
Clc1ccc(CCN2CCN(CCc3ccncc3)CC2)cc1Cl (as salt: hydrobromid) [LK-9135, 1-(3,4-Dichlorophenethyl)-4-(2-(pyridin-4-yl)ethyl)piperazine trihydrobromide] gave a melting point of 253 to 255 °C.
Clc1ccc(CCN2CCN(CCc3ccccn3)CC2)cc1Cl (as salt: hydrobromid) [LK-9137, 1-(3,4-Dichlorophenethyl)-4-(2-(pyridin-2-yl)ethyl)piperazine trihydrobromide] gave a melting point of 207 to 209 °C.
Fc1ccc(CCN2CCN(CCc3ccccn3)CC2)cc1F (as salt: hydrobromid) [LK-9138, 1-(3,4-Difluorophenethyl)-4-(2-(pyridin-2-yl)ethyl)piperazine trihydrobromide] gave a melting point of 212 to 213 °C.
With c1ccc(CCN2CCN(CCCc3cccnc3)CC2)cc1 (as salt: hydrobromid) [LK-9140, 1-Phenethyl-4-(3-(pyridine-3-yl)propyl)piperazine trihydrobromide] the melting point was 262 to 264 °C.
For OC(CN1CCN(c2ccc(F)cc2)CC1)c1cccnc1 (stereo not drawn) (as salt: hydrobromid) [LK-9144, 2-(4-(4-Fluorophenyl)piperazine-1-yl)-1-(pyridine-3-yl)ethanol trihydrobromide], the melting point was 198 to 201 °C.
In the case of OC(CN1CCN(Cc2ccc(F)cc2)CC1)c1cccnc1 (stereo not drawn) (as salt: hydrobromid) [LK-9148, 2-(4-(4-Fluorobenzyl)piperazine-1-yl)-1-(pyridine-3-yl)ethanol trihydrobromide], the melting point is reported as 220 to 223 °C.
In the case of OC(CN1CCN(CCc2ccccc2)CC1)c1ccc2ccccc2c1 (stereo not drawn) [LK-9111B, 1-(Naphthalen-2-yl)-2-(4-phenethylpiperazin-1-yl)ethanol], the “FF-MAS accumulation (in words)” value ([1]; 10 μM) is reported as “notably accumulate FF-MAS”, the “lanosterol level (in words)” value ([1]; 10 μM, relative to normal medium) is reported as “indicates lanosterol accumulation” and the activity at 10 µM ([1]; 10 μM compound, read-out: FF-MAS) is reported as 901%. For the same compound, the activity at 10 µM ([1]; 10 μM compound, read-out: cholesterol) was 0%, the activity at 10 µM ([1]; 10 μM compound, read-out: desmosterol) was 0% and the activity at 10 µM ([1]; 10 μM compound, read-out: lanosterol) was 197%. For the same compound, the activity at 10 µM ([1]; 10 μM compound, read-out: lathosterol) was 46%, the activity at 10 µM ([1]; 10 μM compound, read-out: zymosterol+7-dehydrocholesterol) was 171% and the FF-MAS [1, 2] was 9.01. The cholesterol [1, 2] was 0.00, the desmosterol [1, 2] was 0.00 and the lanosterol [1, 2] was 1.97. The lathosterol [1, 2] was 0.46, the “zymosterol+7-dehydrocholesterol” value [1, 2] was 1.71 and the melting point was 126 to 129 °C.
